Here are results for two compounds from ChEMBL document CHEMBL4421719, “Modulation of k2p channels” (2016).

For assay [1], the species on record is Homo sapiens. The experiment in a line: Selectivity index, ratio of IC50 for inhibition of Trk1p (unknown origin) expressed in SGY1528 yeast cells assessed as inhibition of cell growth by alamar blue dye based assay to IC50 for inhibition of K2P2.1 (unknown origin) expressed in SGY1528 yeast cells assessed as inhibition of cell growth by alamar blue dye based assay. Background: Alamar Blue is a resazurin reagent that responds to reducing activity.

The target of assay [2] is T1, Potassium channel subfamily K member 2 (Homo sapiens) (UniProt O95069).
T1 sequence (whole entry): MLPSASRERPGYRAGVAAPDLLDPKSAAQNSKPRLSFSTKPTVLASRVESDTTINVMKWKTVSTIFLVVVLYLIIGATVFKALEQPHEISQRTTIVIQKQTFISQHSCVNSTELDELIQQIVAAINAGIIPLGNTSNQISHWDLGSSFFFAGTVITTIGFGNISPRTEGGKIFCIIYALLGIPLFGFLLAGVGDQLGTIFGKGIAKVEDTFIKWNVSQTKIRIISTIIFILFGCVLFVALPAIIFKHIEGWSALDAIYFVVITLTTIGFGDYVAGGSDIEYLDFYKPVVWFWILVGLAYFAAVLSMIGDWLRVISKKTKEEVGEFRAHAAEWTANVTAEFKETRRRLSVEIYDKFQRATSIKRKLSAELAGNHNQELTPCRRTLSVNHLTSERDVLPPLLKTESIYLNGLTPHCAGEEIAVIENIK
The experiment in a line: Inhibition of K2P2.1 (unknown origin) expressed in SGY1528 yeast cells assessed as inhibition of cell growth at 10 uM incubated for 24 hrs by alamar blue dye based assay relative to control.

For assay [3], the target named is T1, Potassium channel subfamily K member 2 (Homo sapiens). The experiment in a line: Activation of K2P2.1 (unknown origin) expressed in Xenopus oocytes assessed as effect on channel currents at +40 mV holding potential at 100 uM by two-electrode voltage clamp assay. In kind it is cell-based. On the technique in general: Two-electrode voltage clamp holds a large cell at a set potential and records current.

The target is the same in assay [4]. The experiment in a line: Inhibition of K2P2.1 (unknown origin) expressed in Xenopus oocytes assessed as effect on channel currents at -80 mV holding potential at 100 uM by two-electrode voltage clamp assay relative to control. Format: cell-based.
Assay [5] addresses T2, Potassium channel subfamily K member 2 (Homo sapiens, UniProt O95069).
T2 sequence (O95069 whole entry): T1 sequence (whole entry)
The experiment in a line: Inhibition of K2P2.1 (unknown origin) expressed in Xenopus oocytes assessed as effect on channel currents at -80 mV holding potential by two-electrode voltage clamp assay. In kind it is cell-based.

Assay [6] concerns the target T1, Potassium channel subfamily K member 2 (Homo sapiens). The experiment in a line: Antagonist activity at K2P2.1 (unknown origin) expressed in Xenopus oocytes assessed as suppression of channel currents at 20 uM at -80 mV holding potential by two-electrode voltage clamp assay relative to control. Format: cell-based.
Assay [7] concerns the target T3, Potassium channel subfamily K member 10 (Homo sapiens, UniProt P57789).
T3 sequence (P57789 whole entry): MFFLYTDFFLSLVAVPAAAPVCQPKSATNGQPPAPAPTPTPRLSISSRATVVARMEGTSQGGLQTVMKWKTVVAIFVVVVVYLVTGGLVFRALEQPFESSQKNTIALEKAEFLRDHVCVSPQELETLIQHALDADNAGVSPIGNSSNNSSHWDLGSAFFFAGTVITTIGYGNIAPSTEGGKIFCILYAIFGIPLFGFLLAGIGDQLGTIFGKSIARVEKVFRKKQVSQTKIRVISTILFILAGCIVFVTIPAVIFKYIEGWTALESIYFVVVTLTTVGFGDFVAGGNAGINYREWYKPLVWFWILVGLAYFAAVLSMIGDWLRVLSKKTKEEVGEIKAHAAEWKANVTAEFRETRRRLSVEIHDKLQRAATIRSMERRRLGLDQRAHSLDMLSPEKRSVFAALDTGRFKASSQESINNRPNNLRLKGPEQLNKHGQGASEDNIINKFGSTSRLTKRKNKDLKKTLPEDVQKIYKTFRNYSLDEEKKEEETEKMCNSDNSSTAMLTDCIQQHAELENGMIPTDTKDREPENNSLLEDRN
The experiment in a line: Activation of K2P10.1 (unknown origin) expressed in Xenopus oocytes assessed as effect on channel currents at -80 mV holding potential by two-electrode voltage clamp assay. In kind it is cell-based.

Assay [8] addresses T1, Potassium channel subfamily K member 2 (Homo sapiens). The experiment in a line: Activation of K2P2.1 (unknown origin) expressed in Xenopus oocytes assessed as effect on channel currents at +40 mV holding potential at 400 uM by two-electrode voltage clamp assay. Format: cell-based.
Assay [9] has the same target. The experiment in a line: Reversible activation of K2P2.1 (unknown origin) expressed in Xenopus oocytes assessed as effect on channel currents at 100 uM at -80 mV holding potential by two-electrode voltage clamp assay relative to control. Format: cell-based.
Assay [10] concerns the target Potassium channel subfamily K member 3 (Homo sapiens) (UniProt O14649). The experiment in a line: Activation of K2P3.1 (unknown origin) expressed in Xenopus oocytes assessed as effect on channel currents at -80 mV holding potential by two-electrode voltage clamp assay relative to control. In kind it is cell-based.
Assay [11] deals with Potassium voltage-gated channel subfamily KQT member 2 (Homo sapiens) (UniProt O43526). The experiment in a line: Activation of Kv7.2 (unknown origin) expressed in Xenopus oocytes assessed as effect on channel currents at -80 mV holding potential by two-electrode voltage clamp assay relative to control. In kind it is cell-based.
The target in assay [12] is T1, Potassium channel subfamily K member 2 (Homo sapiens). The experiment in a line: Activation of K2P2.1 (unknown origin) expressed in Xenopus oocytes assessed as effect on channel currents at -80 mV holding by two-electrode voltage clamp assay relative to control. Format: cell-based.
Assay [13] addresses Potassium voltage-gated channel subfamily KQT member 2 (Homo sapiens) (UniProt O43526). The experiment in a line: Activation of Kv7.2 (unknown origin) expressed in Xenopus oocytes assessed as effect on channel currents at 100 uM at -80 mV holding potential by two-electrode voltage clamp assay relative to control. In kind it is cell-based.
The target of assay [14] is T4, Potassium channel subfamily K member 10 (Homo sapiens) (UniProt P57789).
T4 sequence (whole entry): T3 sequence (P57789 whole entry)
The experiment in a line: Activation of K2P10.1 (unknown origin) expressed in Xenopus oocytes assessed as effect on channel currents at 500 uM at -80 mV holding potential by two-electrode voltage clamp assay. In kind it is cell-based.

The target of assay [15] is Potassium channel subfamily K member 3 (Homo sapiens) (UniProt O14649). The experiment in a line: Activation of K2P3.1 (unknown origin) expressed in Xenopus oocytes assessed as effect on channel currents at -80 mV holding potential at 500 uM by two-electrode voltage clamp assay relative to control. In kind it is cell-based.
In assay [16] the target is Potassium voltage-gated channel subfamily KQT member 2 (Homo sapiens) (UniProt O43526). The experiment in a line: Activation of Kv7.2 (unknown origin) expressed in Xenopus oocytes assessed as effect on channel currents at 500 uM at -80 mV holding potential by two-electrode voltage clamp assay relative to control. In kind it is cell-based.
Assay [17] addresses T1, Potassium channel subfamily K member 2 (Homo sapiens). The experiment in a line: Activation of K2P2.1 (unknown origin) expressed in Xenopus oocytes assessed as effect on channel currents at 200 uM at -80 mV holding potential by two-electrode voltage clamp assay. In kind it is cell-based.
Assay [18] shares this target. The experiment in a line: Activation of K2P2.1 (unknown origin) expressed in Xenopus oocytes assessed as effect on channel currents at 500 uM at -80 mV holding potential by two-electrode voltage clamp assay. Format: cell-based.

Active and inactive are the calls of the source. The rule behind the calls is not given here.

Sequence of Potassium voltage-gated channel subfamily KQT member 2 (Homo sapiens) (O43526 whole entry): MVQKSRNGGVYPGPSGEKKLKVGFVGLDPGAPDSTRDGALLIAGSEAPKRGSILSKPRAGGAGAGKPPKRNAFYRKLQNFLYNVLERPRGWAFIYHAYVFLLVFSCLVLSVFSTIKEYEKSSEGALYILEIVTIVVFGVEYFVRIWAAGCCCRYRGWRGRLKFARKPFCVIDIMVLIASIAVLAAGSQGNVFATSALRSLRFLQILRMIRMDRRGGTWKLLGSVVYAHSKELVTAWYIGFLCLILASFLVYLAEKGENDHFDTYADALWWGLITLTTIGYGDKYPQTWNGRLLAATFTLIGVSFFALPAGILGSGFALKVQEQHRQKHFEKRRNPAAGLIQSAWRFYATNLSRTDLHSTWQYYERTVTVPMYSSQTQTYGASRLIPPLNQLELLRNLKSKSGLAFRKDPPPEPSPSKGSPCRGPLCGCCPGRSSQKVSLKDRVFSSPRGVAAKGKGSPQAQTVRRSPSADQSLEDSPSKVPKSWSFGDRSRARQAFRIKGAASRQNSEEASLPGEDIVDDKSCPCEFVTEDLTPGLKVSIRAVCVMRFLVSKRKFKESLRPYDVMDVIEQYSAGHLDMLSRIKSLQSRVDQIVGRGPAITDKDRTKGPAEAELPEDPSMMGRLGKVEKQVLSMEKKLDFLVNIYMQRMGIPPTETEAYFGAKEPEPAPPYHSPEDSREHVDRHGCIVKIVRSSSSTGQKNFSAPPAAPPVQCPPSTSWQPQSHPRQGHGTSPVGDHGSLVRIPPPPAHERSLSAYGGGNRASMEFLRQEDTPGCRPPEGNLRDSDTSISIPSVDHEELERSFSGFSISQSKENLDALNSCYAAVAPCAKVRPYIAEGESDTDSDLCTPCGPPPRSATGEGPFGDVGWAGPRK
Sequence of Potassium channel subfamily K member 3 (Homo sapiens) (O14649 whole entry, looked up): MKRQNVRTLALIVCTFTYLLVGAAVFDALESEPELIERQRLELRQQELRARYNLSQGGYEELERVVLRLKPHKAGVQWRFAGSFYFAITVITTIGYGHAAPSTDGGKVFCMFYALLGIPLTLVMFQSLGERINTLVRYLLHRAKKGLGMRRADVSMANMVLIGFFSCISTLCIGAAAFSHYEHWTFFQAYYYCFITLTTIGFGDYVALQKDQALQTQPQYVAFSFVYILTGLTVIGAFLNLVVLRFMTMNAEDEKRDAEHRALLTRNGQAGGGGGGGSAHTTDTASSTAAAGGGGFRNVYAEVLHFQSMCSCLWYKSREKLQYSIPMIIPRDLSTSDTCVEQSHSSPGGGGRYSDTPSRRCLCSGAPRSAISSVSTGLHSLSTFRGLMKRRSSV

With `Cc1cccc(-n2ncc3c(NCCc4ccccc4)ncnc32)c1`, in assay [1], the Ratio IC50 was less than 2. Also, in [2], the growth inhibition (GI) was determined as 66%. The result in assay [3] was Active. For the same compound, the figures for the inhibition in assay [4] and in assay [6] were 70% and 30%, respectively. Further, in assay [5], the IC50 came out at 21 µM.

For `O=C(O)CCn1c2ccc(Cl)cc2c2cc(Cl)ccc21`, the concentration for a half-maximal effect (EC50) in assay [7] was no less than 250 µM. For the same compound, in assay [1], the Ratio IC50 was less than 2. For the same compound, the growth inhibition (GI) in assay [2] is 66%. In addition, the outcome in assay [8], in assay [17] and in [18] was Active. Moreover, in [9], the fold change (FC) is less than 11. For the same compound, the outcome in [10], in assay [11] and in assay [13] was inactive. The Emax in assay [12] is 11; in [14], 10.1; in assay [15] it was 1.2; in assay [16], 1.8.

Broadly, the inhibition is the drop in the measured response relative to a control, in per cent. As a reminder, the IC50 is the concentration that gives 50% inhibition. By EC50 is commonly meant the midpoint of the concentration-response curve.
